According to patent US20190142971A1, “FORMULATION AND DELIVERY OF MODIFIED NUCLEOSIDE, NUCLEOTIDE, AND NUCLEIC ACID COMPOSITIONS” (ModernaTX, Inc., priority 2013, published 2019):

Legend:
Balb-C mice = assay: Example 88: chemically modified luciferase mRNA in PBS IM, SC, flux (Tables 136, 137); type: in vivo; conditions: luciferase mRNA in PBS (pH 7.4), 2.5 mg/kg
Protocol: Twenty minutes prior to imaging, mice were injected intraperitoneally with a D-luciferin solution at 150 mg/kg. Animals were then anesthetized and images were acquired with an IVIS Lumina II imaging system (Perkin Elmer). Bioluminescence was measured as total flux (photons/second) of the entire mouse. The mice were imaged at 2 hours, 8 hours and 24 hours. […] The background signal was 3.84E+05 (p/s).

mouse myoblast (C2C12) = assay: Example 44: signal sequence exchange, secreted G-CSF ELISA (Table 70); type: cell-based; conditions: MM (mouse myoblast C2C12), 250 ng mRNA, supernatant 24 hrs
Description: (§1) These variants included the G-CSF constructs encoding either the wild-type N terminal secretory signal peptide sequence ([…]; SEQ ID NO: 19), no secretory signal peptide sequence, or secretory signal peptide sequences taken from other mRNAs. These included sequences where the wild type GCSF signal peptide sequence was replaced with the signal peptide sequence of either: human α-1-anti trypsin (AAT) ([…]; SEQ ID NO: 20), human Factor IX (FIX) ([…]; SEQ ID NO: 21), human Prolactin (Prolac) ([…]; SEQ ID NO: 22), or human Albumin (Alb) ([…]; SEQ ID NO: 23).
(§2) 250 ng of modified mRNA encoding each G-CSF variant was transfected into HEK293A (293A in the table), mouse myoblast (MM in the table) (C2C12, CRL-1772, ATCC) and rat myoblast (RM in the table) (L6 line, CRL-1458, ATCC) cell lines in a 24 well plate using 1 ul of Lipofectamine 2000 (Life Technologies), each well containing 300,000 cells. […] The data shown in Table 70 reveal that cells transfected with G-CSF mmRNA encoding the Albumin signal peptide secrete at least 12 fold more G-CSF protein than its wild type counterpart.

rat myoblast (L6 line) = assay: as above; type: cell-based; conditions: RM (rat myoblast L6), 250 ng mRNA, supernatant 24 hrs
Description: as §1, §2

HEK293A = assay: as above; type: cell-based; conditions: 293A, 250 ng mRNA, Lipofectamine 2000, supernatant 24 hrs
Description: as §1, §2

HeLa cells = assay: Example 75: chemical modifications of luciferase mRNA, RLU (Table 114); type: cell-based; conditions: 83 ng luciferase mRNA, 18 to 22 hours
Protocol: The day before transfection, 20,000 HeLa cells (ATCC no. CCL-2; Manassas, Va.) were harvested by treatment with Trypsin-EDTA solution (Life Technologies, Grand Island, N.Y.) and seeded in a total volume of 100 ul EMEM medium (supplemented with 10% FCS and 1× Glutamax) per well in a 96-well cell culture plate (Corning, Manassas, Va.). The cells were grown at 37° C. in 5% CO2 atmosphere overnight. […] Lipofectamine 2000 (LifeTechnologies, Grand Island, N.Y.) was used as transfection reagent and 0.2 ul were diluted in 10 ul final volume of OPTI-MEM. After 5 minutes of incubation at room temperature, both solutions were combined and incubated an additional 15 minute at room temperature. Then the 20 ul combined solution was added to the 100 ul cell culture medium containing the HeLa cells and incubated at room temperature.
After 18 to 22 hours of incubation cells expressing luciferase were lysed with 100 ul of Passive Lysis Buffer (Promega, Madison, Wis.) according to manufacturer instructions. Aliquots of the lysates were transferred to white opaque polystyrene 96-well plates (Corning, Manassas, Va.) and combined with 100 ul complete luciferase assay solution (Promega, Madison, Wis.). The lysate volumes were adjusted or diluted until no more than 2 mio relative light units (RLU) per well were detected for the strongest signal producing samples and the RLUs for each chemistry tested are shown in Table 114. The plate reader was a BioTek Synergy H1 (BioTek, Winooski, Vt.). The background signal of the plates without reagent was about 200 relative light units per well.

[1] = Example 61: storage stability of G-CSF mRNA, gel electrophoresis (Bio-Rad EXPERION); type: physicochemical
Protocol: Stability experiments were conducted to obtain a better understanding of storage conditions to retain the integrity of modified RNA. […] After the mRNA had been stored for 0 hours, 2 hours, 6 hours, 24 hours, 48 hours, 5 days and 14 days, the mRNA was analyzed by gel electrophoresis using a Bio-Rad EXPERION™ system. The modified, unmodified and lipoplexed G-CSF mRNA was also stored in RNASTABLE® (Biomatrica, Inc. San Diego, Calif.) at 40° C. or water at −80° C. or 40° C. for 35 days before being analyzed by gel electrophoresis.
mRNA samples stored at 4° C., 25° C. and 37° C. were stored in 1×TE buffer or the formulation buffer (150 mM sodium chloride, 2 mM calcium chloride, 2 mM phosphate, 0.5 mM EDTA at a pH of 6.5). The mRNA stored at 4° C. was stable to at least 60 days in both the TE and formulation buffer. At 25° C. the mRNA in formulation buffer was stable out to 14 days and the TE buffer was stable out to at least 6 days. Storage of mRNA in the formulation buffer at 37° C. was stable to 6 days compared to the TE buffer which was stable only until 4 days.

BALB/C mice = assay: Example 59: G-CSF mRNA IM in mice, serum human G-CSF and mouse IFN-alpha ELISA (Table 93); type: in vivo
mice = assay: Example 41: IV lipoplexed G-CSF mRNA in mice, neutrophil count (Table 66); type: in vivo; conditions: IV 10% lipoplex, 50 ug at days 0, 2, 4; day 5
Protocol: Neutrophils were measured at days 1, 5 and 8. Controls included non-specific mammalian RNA or the formulation buffer alone (F.Buffer). The mice were bled at days 1, 5 and 8 to determine the effect of mRNA-encoded human G-CSF to increase neutrophil count. The dosing regimen is shown in Table 66 as are the resulting neutrophil counts (thousands/uL; K/uL).

human PBMC = assay: Example 45: PBMC transfection, IFN-alpha ELISA (Table 72); type: cell-based
Protocol: The plates were then incubated at 37 C.
Each condition was done in duplicate.
Shown in Tables 71 and 72 are the average from 2 separate PBMC donors of the G-CSF and IFN-alpha production over time as measured by specific ELISA.

[2] = I.M., 200 ug/mouse (R848 75 ug/mouse), 50 ul, 8 hours after dosing

COc1cn([C@@H]2O[C@H](CO)[C@@H](O)[C@H]2O)c(=O)[nH]c1=O [Formulation 5-methoxyuridine, 5-methoxyuridine]
Flux, Intramuscular Administration (Balb-C mice; 2 hours): 4.93E+06 p/s | Flux, Intramuscular Administration (Balb-C mice; 8 hours): 1.80E+07 p/s | Flux, Intramuscular Administration (Balb-C mice; 24 hours): 4.53E+07 p/s | Flux, Subcutaneous Administration (Balb-C mice; 2 hours): 7.10E+06 p/s | Flux, Subcutaneous Administration (Balb-C mice; 8 hours): 9.38E+06 p/s | Flux, Subcutaneous Administration (Balb-C mice; 24 hours): 1.32E+07 p/s

Prolactin
secreted G-CSF protein (mouse myoblast (C2C12)): 1525 pg/mL | secreted G-CSF protein (rat myoblast (L6 line)): 9800 pg/mL | secreted G-CSF protein (HEK293A): 7875 pg/mL

O=c1[nH]cc([C@@H]2O[C@H](CO)[C@@H](O)[C@H]2O)c(=O)[nH]1 [Pseudouridine]
RLU (HeLa cells): 140234 RLU

CC(=O)Nc1ccn([C@@H]2O[C@H](CO)[C@@H](O)[C@H]2O)c(=O)n1 [Sample N4-Acetylcytidine, N4-Acetylcytidine]
RLU (HeLa cells): 1073251 RLU

Cn1cc([C@@H]2O[C@H](CO)[C@@H](O)[C@H]2O)c(=O)[nH]c1=O [Sample N1-methylpseudouridine, N1-methylpseudouridine]
RLU (HeLa cells): 3068261 RLU

O=c1[nH]c(=O)n([C@@H]2O[C@H](CO)[C@@H](O)[C@H]2O)cc1Br [Sample 5-Bromouridine, 5-Bromouridine]
RLU (HeLa cells): 6787 RLU

5-methylcytosine and pseudouridine
RLU (HeLa cells): 1601234 RLU

COc1cn([C@@H]2O[C@H](CO)[C@@H](O)[C@H]2O)c(=O)[nH]c1=O [Sample 5-methoxyuridine, 5-methoxyuridine]
RLU (HeLa cells): 219657 RLU

α-1-anti trypsin
secreted G-CSF protein (mouse myoblast (C2C12)): 5000 pg/mL | secreted G-CSF protein (rat myoblast (L6 line)): 8475 pg/mL | secreted G-CSF protein (HEK293A): 9950 pg/mL

Albumin
secreted G-CSF protein (mouse myoblast (C2C12)): 81050 pg/mL | secreted G-CSF protein (rat myoblast (L6 line)): 173300 pg/mL | secreted G-CSF protein (HEK293A): 122050 pg/mL

CC(=O)Nc1ccn([C@@H]2O[C@H](CO)[C@@H](O)[C@H]2O)c(=O)n1 [Formulation N4-acetylcytidine, N4-acetylcytidine]
Flux, Intramuscular Administration (Balb-C mice; 2 hours): 1.32E+07 p/s | Flux, Intramuscular Administration (Balb-C mice; 8 hours): 2.15E+07 p/s | Flux, Intramuscular Administration (Balb-C mice; 24 hours): 4.01E+07 p/s | Flux, Subcutaneous Administration (Balb-C mice; 2 hours): 3.07E+07 p/s | Flux, Subcutaneous Administration (Balb-C mice; 8 hours): 1.23E+07 p/s | Flux, Subcutaneous Administration (Balb-C mice; 24 hours): 1.28E+07 p/s

B1: unmodified G-CSF mRNA: G-CSF mRNA (SEQ ID NO: 4) with natural NTPs, Cap1 (nucleic acid)
chain: GGGAAAUAAGAGAGAAAAGAAGAGUAAGAAGAAAUAUAAGAGCCACCAUGGCCGGUCCCGCGACCCAAAGCCCCAUGAAACUUAUGGCCCUGCAGUUGCUGCUUUGGCACUCGGCCCUCUGGACAGUCCAAGAAGCGACUCCUCUCGGACCUGCCUCAUCGUUGCCGCAGUCAUUCCUUUUGAAGUGUCUGGAGCAGGUGCGAAAGAUUCAGGGCGAUGGAGCCGCACUCCAAGAGAAGCUCUGCGCGACAUACAAACUUUGCCAUCCCGAGGAGCUCGUACUGCUCGGGCACAGCUUGGGGAUUCCCUGGGCUCCUCUCUCGUCCUGUCCGUCGCAGGCUUUGCAGUUGGCAGGGUGCCUUUCCCAGCUCCACUCCGGUUUGUUCUUGUAUCAGGGACUGCUGCAAGCCCUUGAGGGAAUCUCGCCAGAAUUGGGCCCGACGCUGGACACGUUGCAGCUCGACGUGGCGGAUUUCGCAACAACCAUCUGGCAGCAGAUGGAGGAACUGGGGAUGGCACCCGCGCUGCAGCCCACGCAGGGGGCAAUGCCGGCCUUUGCGUCCGCGUUUCAGCGCAGGGCGGGUGGAGUCCUCGUAGCGAGCCACCUUCAAUCAUUUUUGGAAGUCUCGUACCGGGUGCUGAGACAUCUUGCGCAGCCGUGAAGCGCUGCCUUCUGCGGGGCUUGCCUUCUGGCCAUGCCCUUCUUCUCUCCCUUGCACCUGUACCUCUUGGUCUUUGAAUAAAGCCUGAGUAGGAAG
modifications: Cap1
time to cytokine response (IFN-beta, IL-6) (BJ fibroblasts): after one day | freeze/thaw cycles tolerated [1]: 12 cycles | stable out to ([1]; stored at 25° C.): 48 h | stable out to ([1]; stored at 37° C.): 6 h | stable out to ([1]; stored at 50° C.): 2 h | Protein: Cytokine Ratio (PC Ratio) (BALB/C mice; G-CSF / IFN-alpha): 9 | G-CSF protein (human, serum) (BALB/C mice; [2]): 605.6 pg/mL | IFN-alpha expression (mouse, serum) (BALB/C mice; [2]): 67.01 pg/mL | PC Ratio (Protein: Cytokine Ratio) (BALB/C mice; I.M., 200 ug/mouse (R848 75 ug/mouse), 8 hours after dosing): 9 | human G-CSF expression in mouse serum (BALB/C mice; IM, 8 hours): resulted in human G-CSF expression in mouse serum | mouse IFN-alpha in the serum (cytokine response) (BALB/C mice; IM, 8 hours): robust cytokine response | increase in neutrophil count above control (mice): no pharmacologic effect | IFN-alpha / cytokine production (human PBMC): substantial IFN-alpha production
